Results published in patent US20220117958A1, “COMPOSITIONS AND METHODS FOR INHIBITING ACSS2” (THE TRUSTEES OF THE UNIVERSITY OF PENNSYLVANIA, priority 2018, published 2022).
Values after ≈ are worked out from the molar mass of the structure shown. Values joined by “and” are separate entries in the source; they are usually repeats but may differ in a detail not shown here. Equal values may be shown once. Read-outs that look alike come from different tables or passages of the source. Marks after values point to notes of the source that are not given here.

What was measured:
[1] = Turbidity-based aqueous solubility; type: physicochemical; conditions: aqueous solution (composition not given), kinetic from dmso stock, read-out: highest soluble concentration
Excerpt: (§1) Table 20 provides results of in vitro and in vivo pharmacokinetics performed for each of the represented compounds.

[2] = Protein binding via Rapid Equilibrium Dialysis - plasma; type: in vitro ADME; conditions: Rat (SD) plasma, 2 μM
Excerpt: as §1

[3] = Microsomal stability assay (half-life), human; type: in vitro ADME; conditions: Human microsomes, read-out: Microsomal stability T1/2
Excerpt: as §1

[4] = Microsomal stability assay (half-life), mouse; type: in vitro ADME; conditions: Mouse (CD1) microsomes, read-out: Microsomal stability T1/2
Excerpt: as §1

[5] = Microsomal stability assay (half-life), rat; type: in vitro ADME; conditions: Rat (SD) microsomes, read-out: Microsomal stability T1/2
Excerpt: as §1

[6] = In vivo PK, oral gavage, plasma; design: species or system Rat (SD); conditions: PO 5 mg/kg; for Plasma concentration, mean: Rat (SD), BQL = below quantitation limit (1.00 ng/mL); for Plasma concentration, individual animal: Rat, BQL limit 1.00 ng/mL
Excerpt: as §1
(§2) Tables 4 and 5 depict the summary of rat plasma sample concentrations after administration of ADG I-204. FIG. 6 provides a summary of rat plasma and brain concentrations.

[7] = In vivo PK, IV dose, plasma; design: species or system Rat (SD); conditions: for Plasma concentration, mean / Plasma concentration, individual animal: IV 1 mg/kg, listed as ADG I-204, 1 mg/kg
Excerpt: as §1, §2

[8] = In vivo PK, IV dose, Terminal - brain (brain availability); design: species or system Rat (SD); conditions: for Brain concentration, mean / Brain concentration, individual animal: IV 1 mg/kg; for Brain concentration, individual animal: Rat
Protocol: Table 3 and FIG. 5 depict the brain availability of ADG I-204, ADG I-205, ADG I-206, and ADG I-207 after IV administration of 1 mg/kg dose.

H3K9ac = test: Western blot, differentiated CAD cell lysates, H3K9ac levels; type: cell-based; conditions: differentiated CAD cells, DMSO = 100.00%
Excerpt: as §1

Structure (SMILES): CCCCCNC(=O)Nc1ccc2nc(-c3cccs3)c(-c3cccs3)nc2c1 [ADG-204]
- solubility [1]: 2 µM (≈ 0.845 µg/mL)
- Protein binding, plasma: % Protein free [2]: 0.1994 % Protein free
- half-life at 2 μM [3]: 1.16 h
- half-life at 2 μM [4]: 5.02 h
- half-life at 2 μM [5]: 3.92 h
- Plasma concentration, mean ([6]; 0.25 hr): BQL
- Plasma concentration, mean ([6]; 0.5 hr): BQL
- Plasma concentration, mean ([6]; 1 hr): BQL
- Plasma concentration, mean ([6]; 4 hr): BQL
- Plasma concentration, mean ([6]; 8 hr): BQL
- Plasma concentration, mean ([6]; 24 hr): BQL
- Plasma concentration, individual animal ([6]; 0.250 hr): BQL
- Plasma concentration, individual animal ([6]; 0.500 hr): BQL
- Plasma concentration, individual animal ([6]; 1.00 hr): BQL
- Plasma concentration, individual animal ([6]; 4.00 hr): BQL
- Plasma concentration, individual animal ([6]; 8.00 hr): BQL
- Plasma concentration, individual animal ([6]; 24.0 hr): BQL
- Plasma concentration, mean ([7]; Rat (SD), 4 hr, terminal): 4 ng/mL
- Plasma concentration, mean ([7]; Rat (SD), 8 hr, terminal): 4 ng/mL
- Plasma concentration, mean ([7]; Rat (SD), 24 hr, terminal, BQL limit 1.00 ng/mL (ADG I-205: 2.00 ng/mL)): 2 ng/mL
- Plasma concentration, individual animal ([7]; Rat, 0.0830 hr, terminal, third animal received only 70% of the test article): 2340 ng/mL and 1170*** ng/mL
- Plasma concentration, individual animal ([7]; Rat, 0.500 hr, not terminal (animals 4, 5 and 6)): 4190** ng/mL and 357 ng/mL and 634 ng/mL
- Plasma concentration, individual animal ([7]; Rat, 1.00 hr, terminal): 278 ng/mL and 103 ng/mL and 279 ng/mL
- Plasma concentration, individual animal ([7]; Rat, 4.00 hr, terminal, BQL limit 1.00 ng/mL (ADG I-205: 2.00 ng/mL)): 4.35 ng/mL
- Plasma concentration, individual animal ([7]; Rat, 8.00 hr, terminal, BQL limit 1.00 ng/mL (ADG I-205: 2.00 ng/mL)): 2.97 ng/mL and 5.93 ng/mL
- Plasma concentration, individual animal ([7]; Rat, 24.0 hr, terminal, BQL limit 1.00 ng/mL (ADG I-205: 2.00 ng/mL)): 1.09 ng/mL and BQL
- concentration at 0.083 h ([7]; SD, rat, plasma, iv, 1 mg/kg, Rat (SD), 0.083 hr, terminal, read-out: Plasma concentration, mean): 1910 ng/mL
- concentration at 0.5 h ([7]; SD, rat, plasma, iv, 1 mg/kg, Rat (SD), 0.500 hr, not a terminal time point (animals 4, 5 and 6)): 1730 ng/mL
- concentration at 1 h ([7]; SD, rat, plasma, iv, 1 mg/kg, Rat (SD), 1 hr, terminal, read-out: Plasma concentration, mean): 220 ng/mL
- concentration at 4 h ([7]; SD, rat, plasma, iv, 1 mg/kg, Rat (SD), 4 hr, terminal, read-out: Plasma concentration, mean): 4.49 ng/mL
- concentration at 8 h ([7]; SD, rat, plasma, iv, 1 mg/kg, Rat (SD), 8 hr, terminal, read-out: Plasma concentration, mean): 4.27 ng/mL
- concentration at 24 h ([7]; SD, rat, plasma, iv, 1 mg/kg, Rat (SD), 24 hr, terminal, BQL limit 1.00 ng/mL (ADG I-205: 2.00 ng/mL), read-out: Plasma concentration, mean): 1.52 ng/mL
- concentration at 0.083 h ([7]; SD, rat, plasma, iv, 1 mg/kg, Rat, 0.0830 hr, terminal, third animal received only 70% of the test article, read-out: Plasma concentration, individual animal): 2220 ng/mL
- concentration at 4 h ([7]; SD, rat, plasma, iv, 1 mg/kg, Rat, 4.00 hr, terminal, BQL limit 1.00 ng/mL (ADG I-205: 2.00 ng/mL), read-out: Plasma concentration, individual animal): 8.63 ng/mL
- concentration at 8 h ([7]; SD, rat, plasma, iv, 1 mg/kg, Rat, 8.00 hr, terminal, BQL limit 1.00 ng/mL (ADG I-205: 2.00 ng/mL), read-out: Plasma concentration, individual animal): 3.92 ng/mL
- concentration at 24 h ([7]; SD, rat, plasma, iv, 1 mg/kg, Rat, 24.0 hr, terminal, BQL limit 1.00 ng/mL (ADG I-205: 2.00 ng/mL), read-out: Plasma concentration, individual animal): 1.95 ng/mL
- Brain concentration, mean ([8]; Rat (SD), 4 hr, BQL limit 10.0 ng/g (204, 206), 20.0 ng/g (205, 207)): BQL
- Brain concentration, mean ([8]; Rat (SD), 8 hr, BQL limit 10.0 ng/g (204, 206), 20.0 ng/g (205, 207)): BQL
- Brain concentration, mean ([8]; Rat (SD), 24 hr, BQL limit 10.0 ng/g (204, 206), 20.0 ng/g (205, 207)): BQL
- Brain concentration, individual animal ([8]; 0.0830 hr, third animal received only 70% of the test article, listed as ADG I-204, 1 mg/kg): 637 ng/g and 583 ng/g and 242*** ng/g
- Brain concentration, individual animal ([8]; 1.00 hr, listed as ADG I-204, 1 mg/kg): 119 ng/g and 60.3 ng/g and 149 ng/g
- Brain concentration, individual animal ([8]; 4.00 hr, BQL limit 10.0 ng/g (204, 206), 20.0 ng/g (205, 207)): BQL
- Brain concentration, individual animal ([8]; 8.00 hr, BQL limit 10.0 ng/g (204, 206), 20.0 ng/g (205, 207)): BQL
- Brain concentration, individual animal ([8]; 24.0 hr, BQL limit 10.0 ng/g (204, 206), 20.0 ng/g (205, 207)): BQL
- concentration at 0.083 h ([8]; SD, rat, brain, iv, 1 mg/kg, Rat (SD), 0.083 hr): 487 ng/g
- concentration at 1 h ([8]; SD, rat, brain, iv, 1 mg/kg, Rat (SD), 1 hr, read-out: Brain concentration, mean): 109 ng/g
- H3K9ac levels normalized to H3 and DMSO control (H3K9ac; 1 uM): 22.30%
- H3K9ac levels normalized to H3 and DMSO control (H3K9ac; 5 uM): 13.48%
- H3K9ac levels normalized to H3 and DMSO control (H3K9ac; 10 uM): 8.32%
- H3K9ac levels normalized to H3 and DMSO control (H3K9ac; 20 uM): 17.03%
- H3K9ac levels normalized to H3 and DMSO control (H3K9ac; 50 uM): 9.64%
- H3K9ac levels normalized to H3 and DMSO control (H3K9ac; 100 uM): 24.00%
